The solubility is the dissolved amount per volume that the medium holds.

The nature of data set [1]: Aqueous solubility in purified water, 24 h equilibration, HPLC. The class given is physicochemical. The following applies: 25° C.; for Aqueous solubility S: 24 h equilibration, effective solubility of abiraterone acetate (corrected for formula mass), LOD ca. one microgram per ml. How it is done:
(§1) The resulting suspension is equilibrated in a temperature-controlled Eppendorf Thermomixer Comfort shaker for 2 hours or 24 hours at 25° C. at a shaking rate of 700 rpm. After 2 hours, or 24 hours, the solid phases are recovered by filter centrifugation (0.22 μm PVDF membrane). Concentrations in the filtrate after 2 hours or 24 hours (i.e. saturated solution) are determined by HPLC using under conditions given in the below Table; limit of detection (LOD) is ca. one microgram per ml.
(§2) For the results in Table a), the medium is purified water.

Data set [2] is described as follows: Dynamic (water) vapour sorption (DVS), hygroscopicity. The class given is physicochemical. The following applies: 25° C. How it is done: DVS: Dynamic (water) vapour sorption (DVS) is performed with a SPS11-100n (“Sorptions Prüfsystem” moisture sorption instrument from Projekt Meβtechnik, Ulm, Germany, using about 20 mg of sample material in an aluminum pan with a change rate of 5% of total relative humidity per hour. Program starting value of 50% with equilibration for 2 hours, continuously lowering to 0%, equilibration (i.e. humidity kept constant), scanning from 0% to 95%, equilibration, scanning from 95% to 0%, equilibration, scanning from 0% to 95%, equilibration, and scanning to 50% relative humidity. Sample temp. 25° C.

For data set [3] the following is noted: pKa of the organic acid / coformer; cited from earlier work.
The conditions of data set [4]: recent publications; quick absorption of a small fraction of the dose; cited from earlier work.
Data set [5] in a line: Solubility of abiraterone acetate in phosphate buffer and various amounts of organic acids. The class given is physicochemical. The conditions noted are these: for solubility: thermodynamic from solid, read-out: Solubility S. How it is done: as §1, §2
The conditions of data set [6]: biopharmaceutics classification system; report EMA/CHMP/542871/2011; cited from earlier work.

Where two headings read alike, the source gives them in different places. Where only a bound is given, the exact number is not on record here.

`CC(=O)O[C@H]1CC[C@@]2(C)C(=CC[C@@H]3[C@@H]2CC[C@]2(C)C(c4cccnc4)=CC[C@@H]32)C1.O=C(O)CC(O)C(=O)O` [Example 3]: in data set [1], the “Aqueous solubility S” value amounted to 13.8 microgram/ml. Also, the “maximum water up-take at 95% r.h.” value in data set [2] was “less than 4%”.
Take `O=C(O)/C=C\C(=O)O` [Example 4, Maleic acid]: in data set [1], the “Aqueous solubility S” value is recorded as 14.4 microgram/ml. Moreover, the “pH of the saturated solution” value in data set [1] (after 24 h equilibration) came to 2.3.
Take `O=C(O)[C@H](O)[C@@H](O)C(=O)O` [L-Tartaric acid, L-tartaric acid]: the pKa result in data set [3] is reported as “L-Tartaric acid (2.95)”.
With `CC(=O)O[C@H]1CC[C@@]2(C)C(=CC[C@@H]3[C@@H]2CC[C@]2(C)C(c4cccnc4)=CC[C@@H]32)C1` [Abiraterone acetate, (3β)-17-(3-pyridinyl)androsta-5,16-dien-3-yl acetate], in data set [4], the “median peak concentration, time after dosing” value is 2 h. The solubility was 2 µg/mL in data set [5] (pH 3.1, aqueous buffer, phosphate buffer, no acid added, 25° C.); 33 µg/mL in data set [5] (phosphate buffer with ascorbic acid, pH 2.4, aqueous buffer, phosphate buffer, ascorbic acid 0.5 mol/L, 25° C.); 5 µg/mL in data set [5] (phosphate buffer with ascorbic acid, pH 2.8, aqueous buffer, phosphate buffer, ascorbic acid 0.1 mol/L, 25° C.); 14 µg/mL in data set [5] (phosphate buffer with citric acid, 25 °C, pH 2.3, aqueous buffer). Moreover, the pH in data set [5] (phosphate buffer, ascorbic acid 0.1 mol/L) was 2.8; in data set [5] (phosphate buffer, ascorbic acid 0.5 mol/L) it was 2.4; in data set [5] (phosphate buffer, citric acid 0.5 mol/L) it was 2.3; in data set [5] (phosphate buffer, no acid added), 3.1. The BCS class result in data set [6] is on record as “class IV”. Moreover, the “Aqueous solubility S” value in data set [1] is listed as “<LOD”.
For the compound `CC(=O)O[C@H]1CC[C@@]2(C)C(=CC[C@@H]3[C@@H]2CC[C@]2(C)C(c4cccnc4)=CC[C@@H]32)C1.COc1cc(C(=O)O)ccc1O` [Example 8], in data set [2], the “water up-take at 80% r.h.” value was “about 0.2%” and the “maximum water up-take at 95% r.h.” value is on record as “less than 0.4%”.
On the same counts, the results for `CC(=O)OC1CCC2(C)C(=CCC3C2CCC2(C)C(c4cccnc4)=CCC32)C1.O=C1NS(=O)(=O)c2ccccc21` (centres unmarked) [Example 6] are 0.1 to 0.2% and “less than 0.4%”.

The values are drawn from patent publication US10045998B2 (BASF SE, priority 2013, dated 2018).
